Assay: xn = mol fraction of the nth substance listed
Conditions: 101 kPa, Liquid; for speed of sound: Sing-around technique in a fixed-path interferometer; for mass density: Vibrating tube method

CCn1cc[n+](C)c1.F[B-](F)(F)F [1-ethyl-3-methylimidazolium tetrafluoroborate] + CC(C)=O
Conditions | mass density, 293.15 K [kg/m3] | mass density, 298.15 K [kg/m3] | speed of sound, 293.15 K [m/s] | speed of sound, 298.15 K [m/s] | speed of sound, 303.15 K [m/s]
x1 = 0.1214 | 933.27 | 928.61 | 1241.1 | 1221 | 1193.4
x1 = 0.1789 | 987.63 | 983.61 | 1280.4 | 1261.7 | 1233.4
x1 = 0.2147 | 1017.82 | 1013.85 | 1307.6 | 1290.7 | 1262.9
x1 = 0.2813 | 1066.88 | 1063.3 | 1360.4 | 1349.9 | 1321.9
x1 = 0.3219 | 1092.73 | 1089.56 | 1394.1 | 1386.6 | 1358.3
x1 = 0.3649 | 1117.49 | 1114.19 | 1429.2 | 1423.4 | 1398.5
x1 = 0.4193 | 1144.91 | 1141.69 | 1473.1 | 1469.1 | 1449.6
x1 = 0.4714 | 1167.62 | 1164.64 | 1507.7 | 1510.2 | 1490.7
x1 = 0.5217 | 1186.9 | 1183.85 | 1539.7 | 1539.6 | 1526.3
x1 = 0.5772 | 1205.54 | 1202.14 | 1566 | 1566.1 | –
x1 = 0.6319 | 1221.27 | 1217.91 | 1583 | 1585.4 | –
x1 = 0.6768 | 1232.69 | 1229.09 | 1593.5 | 1591.6 | –
x1 = 0.7199 | 1242.54 | 1238.8 | 1601.6 | 1596.9 | –
x1 = 0.7724 | 1252.97 | 1249.12 | 1604.7 | 1595.8 | –
x1 = 0.8304 | 1263 | 1258.91 | 1607.5 | 1595.9 | –
x1 = 0.8766 | 1269.84 | 1265.74 | 1610 | 1595.9 | –
x1 = 0.9011 | 1273.08 | 1268.96 | 1612.6 | 1596.6 | –
x1 = 0.9203 | 1275.47 | 1271.38 | 1614.6 | 1599 | –
